Experimental data reported in patent US20220073496A1, “NOVEL QUINOLINE DERIVATIVE INHIBITOR” (Nanjing Transthera Biosciences Co., Ltd., priority 2018, published 2022).
Like-named read-outs stand apart in the source and are kept apart here.

What was measured:
[1] = Stability in liver microsome of dogs; format: in vitro ADME; details: Dog liver microsome 0.5 mg protein/mL, compound 1 μM, 37° C.; for half-life at 1 μM / microsomal CLint at 1 μM: liver microsomes
Procedure: Assay 1: Stability assessment of the compounds of the present invention in liver microsome of mice and dogs
Test substances: the compounds of the present invention, wherein the structures and preparations thereof were as described above.
The composition of the incubation system:
Preparation of Test Substances:
An appropriate amount of the compound was accurately weighed and dissolved in DMSO to prepare a 5.0 mM stock solution. The 5.0 mM stock solution was diluted to 1.0 mM with DMSO, and finally diluted with water to a 10 μM test substance working solution for use (the DMSO content in the reaction system was 0.1%).
(1) The liver microsome (20 mg protein/mL) was taken out from the −80° C. refrigerator, pre-incubated at 37° C. with a water-bathing constant temperature vibrator for 3 minutes, and melted for use.
(2) A mixed solution of the incubation system (excluding compounds and β-NADPH) according to the above “composition of the incubation system” for the assay was prepared, and pre-incubated at 37° C. with a water-bathing constant temperature vibrator for 2 minutes.
(3) Control group (excluding β-NADPH): 30 μL of water and 30 μL of compound working solution (10 μM) were added to 240 μL of the mixed solution of the incubation system of step (2), and vortexed for 30 seconds to mix well. The total reaction volume was 300 μL. A duplicate sample was prepared. The sample was incubated at 37° C. with a water-bathing constant temperature vibrator. The timekeeping began and the sampling time points were set at 0 minute and 60 minutes.
(4) Sample group: 70 μL of β-NADPH solution (10 mM) and 70 μL of compound working solution (10 μM) were added to 560 μL of the mixed solution of step (2). The total reaction volume was 700 μL. The resulting mixture was vortexed for 30 seconds to mix well. A duplicate sample was prepared. The sample was incubated at 37° C. with a water-bathing constant temperature vibrator. The timekeeping began and the sampling time points were set at 0 minute, 5 minutes, 10 minutes, 20 minutes, 30 minutes, and 60 minutes after timekeeping.
(5) After vortexing for 3 minutes, the sample was centrifuged at 4000 rpm for 10 minutes.
(6) 50 μL of the supernatant was taken and 150 μL of water was added. The resulting mixture was vortexed to mix well, and analyzed by LC/MS/MS.
The half-life (t1/2) and clearance rate (Cl) were calculated using the following first-order kinetic formula:
Vd=1/protein content in liver microsome
Note: k was the slope of the logarithm of the remaining amount of the compound versus time, and Vd was the apparent distribution volume.

Rat PK evaluation = format: in vivo; details: SD rats; for Vz_obs iv (apparent distribution volume) / bioavailability / AUC(0-t) / clearance / half-life: n = 3; for bioavailability / AUC(0-t) / clearance / half-life / Tmax: rat, plasma; for bioavailability: read-out: F % (absolute bioavailability); for clearance: read-out: Cl_obs iv (clearance rate) (converted); for Tmax: n = 3, median, read-out: Tmax po (time to peak plasma concentration)
Procedure: Assay 2: Rat PK Evaluation for the Compounds of the Present Invention
Animal Administration and Sample Collection:
(§1) The test compounds 14, 15, 16, 20, 29, 30, 31, 32, 33, 34, 36, 37, 47 and 48 were dissolved in 5% DMSO+20% (30% solutol)+75% saline to prepare the compound solutions. Each of the compound solutions was intragastrically administered to SD rats at a dose of 5.0 mg/kg. The time points of blood collection were: 15 minutes, 30 minutes, 1 hour, 2 hours, 4 hours, 6 hours, 8 hours, 24 hours, 30 hours, and 48 hours.
The test compounds 38, 39, 40 and 41 were dissolved in 5% NMP+5% Tween-80+90% saline to prepare the compound solutions. Each of the compound solutions was intragastrically administered to SD rats at a dose of 5.0 mg/kg. The time points of blood collection were: 15 minutes, 30 minutes, 1 hour, 2 hours. 4 hours, 6 hours, 8 hours, 24 hours, 30 hours, and 48 hours.
as §1, with “was” for “was intragastrically”, “administered by intravenous bolus injection” for “administered”, “1” for “5.0”, “were: 5 minutes,” for “were:”, “hours,” for “hours, 30 hours,”
The test compounds 38, 39, 40 and 41 were dissolved in 5% NMP+5% Tween-80+90% saline to prepare the compound solutions. Each of the compound solutions was administered by intravenous bolus injection to SD rats at a dose of 1 mg/kg. The time points of blood collection were: 5 minutes, 15 minutes, 30 minutes, 1 hour, 2 hours, 4 hours, 6 hours, 8 hours, 24 hours, and 48 hours.
The animal was fixed. The tail was heated in a water bath pot 10 minutes before each time point. About 100 μL of blood was collected through the tail vein. The blood was collected and placed in an anti-coagulation tube containing EDTA-K2. The blood sample was centrifuged at 8000 rpm for 6 minutes at 4° C. to obtain a plasma sample. The plasma was prepared within 30 minutes after the blood collection. The plasma was stored in a −80° C. refrigerator before testing.
The sample to be tested was taken out from the −80° C. refrigerator, naturally melted at room temperature and vortexed for 5 minutes. 20 μL of plasma sample was accurately pipetted into a 1.5 mL centrifuge tube. 200 μL of an internal standard working solution (a solution of tolbutamide in methanol) having a concentration of 100 ng/mL was added and mixed well. The mixture was vortexed for 5 minutes, and centrifuged at 12000 rpm for 5 minutes. 50 μL of the supernatant was accurately pipetted into a 96-well plate pre-filled with 150 μL/well of water. The plate was vortexed for 5 minutes and mixed well, and then the LC-MS/MS determination and analysis were performed.
The concentration of the test substance was output using Analyst 1.6.3 from AB Company. Parameters such as mean, standard deviation, and coefficient of variation were calculated with Microsoft Excel (direct outputs from Analyst 1.6.3 were not calculated), and the PK parameters were calculated using Pharsight Phoenix 6.1 software NCA (Tmax was the median).

[2] = IV 1 mg/kg, read-out: AUClast iv (area under the drug-time curve from 0 to 48 hours)
[3] = IV 1 mg/kg, read-out: tz1/2 iv (terminal elimination half-life) (converted)
[4] = PO 5 mg/kg, read-out: AUClast po (area under the drug-time curve from 0 to 48 hours)
[5] = PO 5 mg/kg, read-out: tz1/2 po (terminal elimination half-life) (converted)

| Structure (SMILES) | half-life at 1 μM [1] [min] | microsomal CLint at 1 μM [1] [µL/min/mg] | Vz_obs iv (apparent distribution volume) (Rat PK evaluation; IV 1 mg/kg) [L/kg] | bioavailability (Rat PK evaluation; IV 1 mg/kg, PO 5 mg/kg) [%] | AUC(0-t) (Rat PK evaluation; [2]) [ng·h/mL] | clearance (Rat PK evaluation; IV 1 mg/kg) [mL/min/kg] | half-life (Rat PK evaluation; [3]) [min] | Tmax (Rat PK evaluation; PO 5 mg/kg) [h] | AUC(0-t) (Rat PK evaluation; [4]) [ng·h/mL] | half-life (Rat PK evaluation; [5]) [min] | t1/2 [1] |
| --- | --- | --- | --- | --- | --- | --- | --- | --- | --- | --- | --- |
| COc1cc2nccc(Oc3ccc(NC(=O)c4cn(C(C)C)cc(-c5ccc(C)cc5)c4=O)nc3)c2cc1OC [Compound 1, N-(5-((6,7-dimethoxyquinolin-4-yl)oxy)pyridin-2-yl)-1-isopropyl-4-oxo-5-p-tolyl-1,4-dihydropyridin-3-carboxamide] | 12.6 | 110 | – | – | – | – | – | – | – | – | – |
| COc1cc2nccc(Oc3ccc(NC(=O)c4cn(C(C)C)cc(-c5ccc(F)cc5)c4=O)nc3)c2cc1OC [Compound 14, N-(5-((6,7-dimethoxyquinolin-4-yl)oxy)pyridin-2-yl)-5-(4-fluorophenyl)-1-isopropyl-4-oxo-1,4-dihydropyridin-3-carboxamide] | 154 | 9 | 0.25 | 63.2 | 34900 | 0.45 | 378 | 2 | 110000 | 726 | – |
| COc1cc2nccc(Oc3ccc(NC(=O)c4nn(C(C)C)cc(-c5ccc(F)cc5)c4=O)nc3)c2cc1OC [Compound 15, N-(5-((6,7-dimethoxyquinolin-4-yl)oxy)pyridin-2-yl)-5-(4-fluorophenyl)-1-isopropyl-4-oxo-1,4-dihydropyridazine-3-carboxamide] | 224 | 6.2 | 1.23 | 78.9 | 18100 | 0.783 | 1110 | – | 67400 | 1230 | – |
| COc1cc2nccc(Oc3ccc(NC(=O)c4cn(C5CC5)nc(-c5ccc(F)cc5)c4=O)nc3)c2cc1OC [Compound 42, 2-cyclopropyl-N-(5--((6,7-dimethoxyquinolin-4-yl)oxy)pyridin-2-yl)-6-(4-fluorophenyl)-5-oxo-2,5-dihydropyridazine-4-carboxamide] | – | – | – | – | – | – | – | – | – | – | →∞ |
| COc1cc2nccc(Oc3cnc(NC(=O)c4cn(C5CC5)nc(-c5ccc(F)cc5)c4=O)nc3)c2cc1OC [Compound 45, 2-cyclopropyl-N-(5-((6,7-dimethoxyquinolin-4-yl)oxy)pyrimidine-2-yl)-6-(4-fluorophenyl)-5-oxo-2,5-dihydropyridazine-4-carboxamide] | 578 | 2.4 | – | – | – | – | – | – | – | – | – |
| COc1cc2nccc(Oc3ccc(NC(=O)c4nn(C5CC5)cc(-c5ccc(C)cc5)c4=O)nc3)c2cc1OC [Compound 46, 1-cyclopropyl-N-(5-((6,7-dimethoxyquinolin-4-yl)oxy)pyridin-2-yl)-4-oxo-5-p-tolyl-1,4-dihydropyridazine-3-carboxamide] | 12.5 | 111 | – | – | – | – | – | – | – | – | – |

Further lines, results first:

| half-life at 1 μM [1] [min] | microsomal CLint at 1 μM [1] [µL/min/mg] | Vz_obs iv (apparent distribution volume) (Rat PK evaluation; IV 1 mg/kg) [L/kg] | bioavailability (Rat PK evaluation; IV 1 mg/kg, PO 5 mg/kg) [%] | AUC(0-t) (Rat PK evaluation; [2]) [ng·h/mL] | clearance (Rat PK evaluation; IV 1 mg/kg) [mL/min/kg] | half-life (Rat PK evaluation; [3]) [min] | Tmax (Rat PK evaluation; PO 5 mg/kg) [h] | AUC(0-t) (Rat PK evaluation; [4]) [ng·h/mL] | half-life (Rat PK evaluation; [5]) [min] | t1/2 [1] | Structure (SMILES) |
| --- | --- | --- | --- | --- | --- | --- | --- | --- | --- | --- | --- |
| – | – | 3.32 | 81.6 | 6000 | 2.5 | 912 | 4 | 25500 | 726 | – | COc1cc2nccc(Oc3ccc(NC(=O)c4cn(C(C)C)nc(-c5ccc(F)cc5)c4=O)cn3)c2cc1OC [Compound 38, N-(6-((6,7-dimethoxyquinolin-4-yl)oxy)pyridin-3-yl)-6-para-fluorophenyl-2-isopropyl-5-oxo-2,5-dihydropyridazine-4-carboxamide] |
| – | – | 6.81 | 103 | 2750 | 5.83 | 846 | 4 | 14400 | 822 | – | COc1cc2nccc(Oc3ccc(NC(=O)c4cn(C(C)C)nc(-c5ccc(F)cc5)c4=O)nc3)c2cc1OC [Compound 41, N-(5-((6,7-dimethoxyquinolin-4-yl)oxy)pyridin-2-yl)-6-(4-fluorophenyl)-2-isopropyl-5-oxo-2,5-dihydropyridazine-4-carboxamide] |
| 144 | 9.6 | – | – | – | – | – | – | – | – | – | COc1cc2nccc(Oc3ccc(NC(=O)c4cn(C5CC5)nc(-c5ccc(F)cc5)c4=O)cn3)c2cc1OC [Compound 43, 2-cyclopropyl-N-(6-((6,7-dimethoxyquinolin-4-yl)oxy)pyridin-3-yl)-6-para-fluorophenyl-5-oxo-2,5-dihydropyridazine-4-carboxamide] |
